Experimental data as given in ChEMBL document CHEMBL1159345, “Eudistomins W and X, two new beta-carbolines from the micronesian tunicate Eudistoma sp” (2003).

Columns and labels:
Format in all cases: functional
Conditions in all cases: read-out: IZ
Candida albicans [1] = assay: Antimicrobial activity against Candida albicans at 10 ug/disk by agar diffusion assay
Staphylococcus aureus [2] = assay: Antimicrobial activity against Staphylococcus aureus at 10 ug/disk by agar diffusion assay
Escherichia coli [3] = assay: Antimicrobial activity against Escherichia coli at 5 ug/disk by agar diffusion assay
Bacillus subtilis [4] = assay: Antimicrobial activity against Bacillus subtilis at 10 ug/disk by agar diffusion assay
Escherichia coli [5] = assay: Antimicrobial activity against Escherichia coli at 10 ug/disk by agar diffusion assay
Bacillus subtilis [6] = assay: Antimicrobial activity against Bacillus subtilis at 5 ug/disk by agar diffusion assay
Candida albicans [7] = assay: Antimicrobial activity against Candida albicans at 5 ug/disk by agar diffusion assay
Staphylococcus aureus [8] = assay: Antimicrobial activity against Staphylococcus aureus at 5 ug/disk by agar diffusion assay

SMILES	zone of inhibition at 10 µg/disc (Candida albicans [1]) [mm]	zone of inhibition at 10 µg/disc (Staphylococcus aureus [2]) [mm]	zone of inhibition at 5 µg/disc (Escherichia coli [3]) [mm]	zone of inhibition at 10 µg/disc (Bacillus subtilis [4]) [mm]	zone of inhibition at 10 µg/disc (Escherichia coli [5]) [mm]	zone of inhibition at 5 µg/disc (Bacillus subtilis [6]) [mm]	zone of inhibition at 5 µg/disc (Candida albicans [7]) [mm]	zone of inhibition at 5 µg/disc (Staphylococcus aureus [8]) [mm]
Oc1ccc2[nH]c3c([C@@H](O)Cc4ccccc4)nccc3c2c1 [EUDISTOMIN W]	13							
CN(C)C(Cc1ccccc1)c1nccc2c1[nH]c1ccc(O)cc12 (centres undefined) [EUDISTOMIN X]	18	12	15	18	20	17	17	11
